# Measurements: paper PMC7127694 (Bioorganic & Medicinal Chemistry, 2009)
# Read-outs that look alike come from different tables or passages of the source.
# How the values were obtained:
# BVDV = conditions: read-out: EC50 (anti-BVDV); cited from earlier work
# [1] = tested on: HSV-1 (Herpes Simplex virus, Type-1); type: cell-based
# [2] = Cytotoxicity on host cells, mean over the host cell lines; conditions: human, bovine, hamster, monkey
# RSV = conditions: read-out: EC50 (anti-RSV), cited from earlier work
compound,measurement,setting,value
"Brc1ccc(Cn2ccc3nc(-c4ccccc4)nc-3c2)cc1 [BPIP, 5-[4-bromobenzyl]-2-phenyl-5H-imidazo[4,5-c]pyridine]",EC50,BVDV,30 to 40 nM
"CN(C)CCCNc1ccc(/N=N/c2cccc([N+](=O)[O-])c2)cc1.Cl [Compound 2, N,N-Dimethyl-N′-[4-(3-nitrophenylazo)phenyl]propane-1,3-diamine]","S. I. (selectivity index), HSV-1",[1],4.2
"CN(C)CCCN(/N=N/c1cc(F)ccc1F)c1ccccc1 [Compound 29, 1-[1-(2,5-Difluorophenyl)-3-phenyltriazen-3-yl]-N,N-dimethyl-3-propanamine]",CC50,[2],17500 nM
O=c1n(Cc2nc3ccccc3n2CCCCO)c2cnccc2n1C1CC1 [BMS-433771],EC50,RSV; fusion inhibitor,21 nM
Fc1ccc(/N=N/c2ccc(NC[C@@H]3CCCN4CCCC[C@H]34)c3c2CCCC3)c(F)c1 [Compound 12],CC50,[2],21500 nM
"3-[(dipropylaminoethyl)thio]-5H-1,2,4-triazino[5,6-b]indole [VP32947]",EC50,BVDV,30 to 40 nM
O=C(Nc1ccccc1F)N[C@H]1N=C(c2ccccc2)c2ccccc2NC1=O [RSV-604],EC50,RSV; S-enantiomer,900 nM
